Here are results for 71 compounds from ChEMBL document CHEMBL4483862, “Open-source discovery of chemical leads for next-generation chemoprotective antimalarials” (2018).

The subject of this assay is Plasmodium berghei. Description: Luciferase/luciferin-expressing antifolate-resistant parasites were used to infect a culture of HepG2 cells that were pre-incubated with compounds. Infected hepatocytes emit light due to the luciferase reaction. Assay results are presented as the percent inhibition of light emission compared to control. […]. The class given is functional. Particulars: sporozoite; for IC50: read-out: LUCIFERASE INFECTION ASSAY - IC50; for IC90: read-out: LUCIFERASE INFECTION ASSAY - IC90.

One may read the IC50 as the point on the concentration scale where inhibition reaches its midpoint. For orientation: IC90 means the concentration needed for an effect of 90%. Regarding `O=C(Nc1ccccc1)c1ccc(CN2CCN(CCOc3ccccc3)CC2)cc1`, the IC50 amounted to 0.646 µM and the IC90 worked out at 1.96 µM.

For `COc1ccc(-c2csc3ncnc(NC4CCN(CC(N)=O)CC4)c23)cc1`, the IC50 came out at 5.11 µM and the IC90 was found to be 8.68 µM.

On to `O=S(=O)(NCCNc1cnccn1)c1ccc(OC(F)(F)F)cc1`, for which the IC50 is over 10 µM and the IC90 was over 10 µM.

With `O=C(Nc1ncc(Cc2cc(F)cc(F)c2)s1)c1ccc2nc[nH]c2c1`, the IC50 amounted to 2.9 µM and the IC90 came to 6.19 µM.

Take `COc1ccc(Nc2nc(NCCO)c3ccccc3n2)cc1`: the IC50 was over 10 µM and the IC90 is over 10 µM.

In the case of `Cc1cc(NC(=O)CCNC(C)c2ccc(CC(C)C)cc2)no1` (configuration not stated), the IC50 is over 10 µM and the IC90 was over 10 µM.

For `c1ccc2c(Nc3nc(C4CC4)cs3)ncnc2c1`, the IC50 is over 10 µM and the IC90 was over 10 µM.

On to `N#CCc1c(C#N)c(N)nc(Nc2ccc(F)cc2F)c1C#N`, for which the IC50 was 3.64 µM and the IC90 is 6.78 µM.

With `Cc1cnc(Nc2ncnc3ccccc23)s1`, the IC50 is over 10 µM and the IC90 is over 10 µM.

Consider `C#Cc1cccc(NC(=O)c2[nH]c(C)c(C(=O)OCC)c2C)c1`, for which the IC50 is over 10 µM and the IC90 is over 10 µM.

Consider `Cc1sc2nc(-c3cccnc3)nc(NC3CCC(O)CC3)c2c1-c1ccccc1` (configuration not stated), for which the IC50 is over 10 µM and the IC90 was over 10 µM.

Take `COc1cc(OC)c2[nH]c(C(=O)NCCc3ccc(-c4csc(C)n4)s3)cc2c1`: the IC50 was over 10 µM and the IC90 is over 10 µM.

As to `O=C(Nc1ccc(-c2csc(NC(=O)c3c[nH]nc3-c3ccccc3)n2)cc1)c1ccccc1`, the IC50 was determined as 2.42 µM and the IC90 turned out to be 7.36 µM.

Turning to `Cc1ccc(Nc2nc(NCCO)c3ccccc3n2)cc1`, the IC50 stood at 4.79 µM and the IC90 was over 10 µM.

Take `Nc1nccnc1C(=O)Nc1nc2ccc(Oc3ccccc3)cc2s1`: the IC50 is over 10 µM and the IC90 was over 10 µM.

Regarding `Clc1ccc2c(Nc3ccc(N4CCOCC4)cc3)ccnc2c1`, the IC50 is over 10 µM and the IC90 was over 10 µM.

`COc1cc(NC(=O)CN2CC=C(c3c[nH]c4ccccc34)CC2)cc(OC)c1OC`: the IC50 is over 10 µM and the IC90 is over 10 µM.

On to `CN(C)Cc1ccc(CNc2ncnc3scc(-c4ccccc4)c23)cc1`, for which the IC50 was found to be 0.704 µM and the IC90 was found to be 2.66 µM.

Take `O=C(Nc1nc(CN2CCOCC2)cs1)c1ccccc1Nc1ccccc1`: the IC50 was over 10 µM and the IC90 was over 10 µM.

Regarding `Cc1cc(-c2csc(Nc3ccccn3)n2)c(C)n1-c1nccs1`, the IC50 is over 10 µM and the IC90 was over 10 µM.

For `OCc1cccc(Nc2nc(-c3ccsc3)nc3ccccc23)c1`, the IC50 is over 10 µM and the IC90 was over 10 µM.

In the case of `O=C(Nc1ccc(CNc2ncnc3cc(Cl)ccc23)cc1)C1CC1`, the IC50 came to 0.544 µM and the IC90 turned out to be 1.46 µM.

As for `O=C(Nc1nc(-c2c[nH]c3ccccc23)cs1)c1coc(Br)c1`, the IC50 is over 10 µM and the IC90 is over 10 µM.

For the compound `CNC(=O)c1cccc(NC(=O)c2cc(Cl)c[nH]2)c1`, the IC50 is over 10 µM and the IC90 is over 10 µM.

As for `COCCNc1nc(-c2c(-c3ccccc3)[nH]c3ccccc23)cs1`, the IC50 is over 10 µM and the IC90 is over 10 µM.

With `CCn1c(=O)c(=O)[nH]c2cc(C(=O)Nc3cccc(C#Cc4cccs4)c3)ccc21`, the IC50 was over 10 µM and the IC90 is over 10 µM.

On to `Cc1cc2occ(CC(=O)Nc3ccc(N4CCN(C)CC4)nc3)c2cc1C(C)C`, for which the IC50 stood at 9.57 µM and the IC90 was over 10 µM.

Regarding `Cc1ccc(NC(=O)c2cc(-c3ccc4c(c3)OCCO4)nc3c2cnn3C(C)C)nc1`, the IC50 was over 10 µM and the 90% effect concentration (IC90) is over 10 µM.

For `O=C(Nc1ccnn1Cc1cccc(Cl)c1)c1csc(-c2ccsc2)n1`, the IC50 was over 10 µM and the IC90 was over 10 µM.

Regarding `Clc1ccccc1Oc1ccc(Nc2ccc3nnnn3n2)cc1`, the IC50 is over 10 µM and the IC90 was over 10 µM.

With `CCN(CC)CCn1c(NC(=O)c2cc(C(C)=O)c[nH]2)nc2ccccc21`, the IC50 was found to be 1.82 µM and the IC90 was over 10 µM.

As for `COc1cc2nc(-c3ccccc3)nc(N3CCN(c4ccncc4)CC3)c2cc1OC`, the IC50 was over 10 µM and the IC90 was over 10 µM.

Regarding `CN(CC(=O)Nc1nc2ccc(Cl)cc2s1)S(=O)(=O)c1ccc(C#N)cc1`, the IC50 came to 5.71 µM and the IC90 is 8.36 µM.

On to `COc1ccc(-c2csc3ncnc(NCCC(C)C)c23)cc1`, for which the IC50 is over 10 µM and the IC90 is over 10 µM.

Turning to `COc1cc(Nc2ncnc3ccsc23)cc(OC)c1`, the IC50 was found to be 0.968 µM and the IC90 was 2.61 µM.

As for `CC(NC(=O)COC(=O)COc1ccc2c(c1)CCC(=O)N2)c1ccco1` (configuration not stated), the IC50 was over 10 µM and the IC90 is over 10 µM.

On to `CC(NC(=O)NC(=O)c1ccccc1)C1CC2CCC1C2` (configuration not stated), for which the IC50 was over 10 µM and the IC90 is over 10 µM.

In the case of `COc1ccc(NC(=O)c2cc(S(N)(=O)=O)ccc2Br)cc1Cc1ccccc1`, the IC50 was over 10 µM and the IC90 was over 10 µM.

Consider `CCc1cccc2c(C3=CCN(c4ncnc5c4cnn5C)CC3)c[nH]c12`, for which the IC50 was over 10 µM and the IC90 is over 10 µM.

Regarding `O=C(Nc1cccc(C#Cc2ccccc2)c1)c1ccoc1`, the IC50 is over 10 µM and the IC90 is over 10 µM.

Turning to `COc1ccc(-n2cc(-c3ccccc3)c3c(NCc4cccnc4)ncnc32)cc1`, the 50% inhibitory concentration (IC50) was over 10 µM and the IC90 is over 10 µM.

As to `Cc1cc(-c2cc(C(=O)NCc3ccc(Cn4cncn4)cc3)c3cnn(C(C)C)c3n2)c(C)s1`, the half-inhibitory concentration (IC50) is over 10 µM and the IC90 is over 10 µM.

For the compound `CS(=O)(=O)Nc1ccc(-c2csc(NC(=O)c3ccc4ncsc4c3)n2)cc1`, the half-maximal inhibitory concentration (IC50) is over 10 µM and the IC90 is over 10 µM.

For `O=C(Nc1ccc2c(c1)OC(F)(F)O2)c1ccc(F)c(F)c1`, the IC50 was 9.62 µM and the 90% effect concentration (IC90) was over 10 µM.

With `COc1ccc(C(C)(C)C)cc1NC(=O)c1ccc(NC(=O)Nc2ccccc2)s1`, the IC50 came out at 5.57 µM and the IC90 is 5.68 µM.

Turning to `COc1ccc(NC(=O)C(C(=O)Nc2ccc(OC)cc2)C23CC4CC(CC(C4)C2)C3)cc1`, the 50% inhibitory concentration (IC50) was 7.12 µM and the IC90 is over 10 µM.

In the case of `O=C(Nc1ncccc1O)c1ccc(-c2ccccc2)cc1`, the IC50 is 4.59 µM and the IC90 was 8 µM.

As for `O=C(Cc1csc(NC(=O)c2ccccc2)n1)Nc1ncccc1O`, the IC50 was over 10 µM and the IC90 was over 10 µM.

On to `COc1cc2nc(NC(=O)c3[nH]c4c(c3C)C(=O)CCC4)sc2cc1OC`, for which the IC50 was over 10 µM and the IC90 is over 10 µM.

As for `O=C(Nc1ncc(Cc2cccc(Cl)c2Cl)s1)c1ccncc1`, the concentration for half-maximal inhibition (IC50) came out at 3.27 µM and the IC90 was 7.55 µM.

`Cc1cc(C(=O)Nc2nc3ccccc3[nH]2)c(C)s1`: the IC50 was over 10 µM and the IC90 was over 10 µM.

Turning to `NS(=O)(=O)c1ccc(CCNc2cc(-c3ccccc3)c3cc4c(cc3n2)OCCO4)cc1`, the IC50 was determined as 3.43 µM and the IC90 was 6.08 µM.

Regarding `O=C(Nc1cc(S(=O)(=O)N2CCCCCC2)ccc1OCC(F)(F)F)c1cccc2c[nH]nc12`, the IC50 was over 10 µM and the IC90 is over 10 µM.

For `Cc1ccc(C2=NNC(=NC3CC3)SC2)cc1`, the IC50 turned out to be 1.46 µM and the IC90 is over 10 µM.

With `Cc1nc(Nc2ccc(Cl)cc2)sc1C(=O)Nc1ccccc1`, the IC50 is over 10 µM and the IC90 was over 10 µM.

On to `Cn1nnnc1Sc1ncnc2cc(-c3ccc(F)cc3)sc12`, for which the IC50 is over 10 µM and the IC90 was over 10 µM.

Consider `O=C(OCC1CCCCC1)c1[nH]nc2ccccc12`, for which the IC50 was over 10 µM and the IC90 was over 10 µM.

Regarding `CN1CCN(c2nc(-c3c(-c4ccc(F)cc4)[nH]c4ccccc34)cs2)CC1`, the IC50 was over 10 µM and the IC90 was over 10 µM.

`COc1cc(CNc2ncnc3sc(-c4ccccc4)cc23)ccn1`: the IC50 is 8.74 µM and the IC90 is over 10 µM.

Take `Cc1ccc(-c2nc(SCCC(N)=O)[nH]c2-c2ccc(C)cc2)cc1`: the half-inhibitory concentration (IC50) was over 10 µM and the IC90 was over 10 µM.

For `Clc1ccc2c(NCc3ccc(N4CCOCC4)nc3)ncnc2c1`, the IC50 was over 10 µM and the IC90 is over 10 µM.

Regarding `c1ccc(C(Nc2ncnc3ccsc23)c2cccs2)cc1` (configuration not stated), the IC50 came to 1.14 µM and the IC90 amounted to 2.58 µM.

Consider `CCn1c(=O)c(=O)[nH]c2cc(C(=O)Nc3ccc(Oc4ccccc4)cc3)ccc21`, for which the IC50 was over 10 µM and the IC90 is over 10 µM.

Consider `CCOC(=O)c1c(C)[nH]c(C(=O)Nc2ccnn2C2CCCC2)c1C`, for which the IC50 stood at 6.86 µM and the 90% effect concentration (IC90) amounted to 6.13 µM.

`Nc1nccnc1C(=O)Nc1nnc(-c2cccc(Br)c2)[nH]1`: the IC50 was over 10 µM and the IC90 was over 10 µM.

Take `CCN(CC)S(=O)(=O)c1ccc(-c2csc(Nc3ccccn3)n2)cc1`: the IC50 is over 10 µM and the IC90 was over 10 µM.

Take `CCN1CCC(N(C)c2ncnc3sc(-c4ccccc4)cc23)CC1`: the IC50 was over 10 µM and the IC90 is over 10 µM.

Consider `CC1SC(=Nc2ccc(S(=O)(=O)N3CCOCC3)cc2)NN=C1C12CC3CC(CC(C3)C1)C2` (configuration not stated), for which the IC50 is over 10 µM and the IC90 is over 10 µM.

As for `c1nc(NCC23CC4CC(CC(C4)C2)C3)c2sccc2n1`, the IC50 was over 10 µM and the IC90 was over 10 µM.

`O=C(Nc1nc(CN2CCCCC2)cs1)c1ccc2[nH]c3c(c2c1)CCCC3`: the IC50 was over 10 µM and the IC90 was over 10 µM.

For the compound `CC(C)c1ccc(C(NCC(=O)NC(=O)NC2CCCC2)c2cccs2)cc1` (configuration not stated), the IC50 was over 10 µM and the IC90 is over 10 µM.
